Results reported in patent US12171230B2, “Herbicidal compositions” (Bayer Aktiengesellschaft, priority 2018, dated 2024).

How the values were obtained:
Assay type in all cases: in vivo
Bidens pilosa = test: Post-emergence herbicidal action against Bidens pilosa
Protocol: (§1) When the observed efficacies exceed the formal sum total of the values of the tests with individual applications, they also exceed the expected value according to Colby, which is calculated using the formula below and is likewise regarded as an indication of synergism (cf. S. R. Colby; in Weeds 15 (1967) p. 20 to 22): E^C=A+B−([…])
(§2) Here: • A=efficacy of the active compound (A) in % at an application rate of a g a.i./ha; • B=efficacy of the active compound (B) in % at an application rate of b g a.i./ha; • E^C=expected value of the effect of the combination (A)+(B) in % at the combined application rate a+b g a.i./ha.
(§3) Seeds or rhizome pieces of mono- and dicotyledonous weeds are placed in sandy loam in pots, covered with soil and grown in a greenhouse under good growth conditions (temperature, air humidity, water supply). Three weeks after sowing, the test plants were treated at the three-leaf stage with the compositions according to the invention. The compositions according to the invention formulated as spray powders or as emulsion concentrates were sprayed onto the green plant parts in various dosages with an application rate of 300 to 800 l/ha of water (equivalent). After the test plants have been left to stand in the greenhouse under optimal growth conditions for about 3 to 4 weeks, the action of the preparations is scored visually in comparison to untreated controls. The compositions according to the invention also have good post-emergence herbicidal activity against a broad spectrum of economically important gramineous and broadleaf weeds.

Digitaria sanguinalis = test: Post-emergence herbicidal action against Digitaria sanguinalis; details: for Herbicidal action: 21 DAT
Protocol: as §1, §2, §3

Amaranthus palmeri = test: Post-emergence herbicidal action against Amaranthus palmeri; details: Amaranthus palmeri, post-emergence, 504 h
Protocol: as §1, §2, §3

Poa annua = test: Post-emergence herbicidal action against Poa annua; details: for Herbicidal action in [%] 28 DAT against Poa annua: post-emergence
Protocol: as §1, §2, §3

Centaurea cyano = test: Post-emergence herbicidal action against Centaurea cyano
Protocol: Seeds or rhizome pieces of mono- and dicotyledonous weeds are placed in sandy loam in pots, covered with soil and grown in a greenhouse under good growth conditions (temperature, air humidity, water supply). Three weeks after sowing, the test plants were treated at the three-leaf stage with the compositions according to the invention. The compositions according to the invention formulated as spray powders or as emulsion concentrates were sprayed onto the green plant parts in various dosages with an application rate of 300 to 800 l/ha of water (equivalent).

Galium aparine = test: Post-emergence herbicidal action against Galium aparine; details: for Herbicidal action in [%] 28 DAT against Galium aparine: post-emergence
Protocol: as §1, §2, §3

Matricaria inodora = test: Post-emergence herbicidal action against Matricaria inodora
[1] = test system: Lolium rigidum (resistant biotype); test: Post-emergence herbicidal action against Lolium rigidum (resistant biotype)
Source text: (§4) The following abbreviations are used in the description and the tables that follow: • g of a.i./ha=grams of active substance (active ingredient) (=100% active compound) per hectare; • The sum total of the effects of the individual applications is reported under E^A; • expected values according to Colby are each reported under E^C.
(§5) The rating period is reported in days after application (DAT).

Phalaris minor [2] = test: Post-emergence herbicidal action against Phalaris minor; details: 15 g of a.i./ha
Source text: as §4, §5

Alopecurus myosuroides [3] = test: Post-emergence herbicidal action against Alopecurus myosuroides; details: 1.7 g of a.i./ha
Source text: as §4, §5

Alopecurus myosuroides [4] = test: as above
Bromus sterilis = test: Post-emergence herbicidal action against Bromus sterilis
Lolium rigidum = test: Post-emergence herbicidal action against Lolium rigidum
[5] = test system: Lolium rigidum (resistant biotype); test: Post-emergence herbicidal action against Lolium rigidum (resistant biotype); remark: listed apart in the source
Phalaris minor [6] = test: Post-emergence herbicidal action against Phalaris minor

Structure (SMILES): COCc1cnc(C2=NC(C)(C(C)C)C(=O)N2)c(C(=O)O)c1 (stereo not shown) [(B4.11) Imazamox]
- Herbicidal action 21 DAT [%] against Bidens pilosa (Bidens pilosa; 3.3 g of a.i./ha): 20%
- Herbicidal action 21 DAT [%] against Bidens pilosa (Bidens pilosa; 30 g of a.i./ha): 50%
- Herbicidal action 21 DAT [%] against Digitaria sanguinalis (Digitaria sanguinalis; 3.3 g of a.i./ha): 60%

Structure (SMILES): CCc1cnc(C2=NC(C)(C(C)C)C(=O)N2)c(C(=O)O)c1 (stereo not shown) [(B4.15) Imazethapyr]
- pest or weed control at 3.33 g/ha (Amaranthus palmeri; 3.33 g of a.i./ha, read-out: Herbicidal action 21 DAT [%] against Amaranthus palmeri): 0%
- pest or weed control at 10 g/ha (Amaranthus palmeri; 10 g of a.i./ha, read-out: Herbicidal action 21 DAT [%] against Amaranthus palmeri): 0%
- pest or weed control at 30 g/ha (Amaranthus palmeri; 30 g of a.i./ha, read-out: Herbicidal action 21 DAT [%] against Amaranthus palmeri): 10%
- Herbicidal action 21 DAT [%] against Bidens pilosa (Bidens pilosa; 3.33 g of a.i./ha): 0%
- Herbicidal action 21 DAT [%] against Bidens pilosa (Bidens pilosa; 10 g of a.i./ha): 0%
- Herbicidal action 21 DAT [%] against Bidens pilosa (Bidens pilosa; 30 g of a.i./ha): 25%

Structure (SMILES): CCOC(=O)COc1ncccc1Oc1cc(-n2c(=O)cc(C(F)(F)F)n(C)c2=O)c(F)cc1Cl [(B9.14), ethyl [3-[2-chloro-4-fluoro-5-(1-methyl-6-trifluoromethyl-2,4-dioxo-1,2,3,4-tetrahydropyrimidin-3-yl)phenoxy]-2-pyridyloxy]acetate, reference compound]
- Herbicidal action in [%] 28 DAT against Poa annua (Poa annua; 5 g of a.i./ha): 80%
- Herbicidal action in [%] 28 DAT against Poa annua (Poa annua; 10 g of a.i./ha): 60%
- Herbicidal action in [%] 28 DAT against Centaurea cyano (Centaurea cyano; 2.5 g of a.i./ha, post-emergence): 90%
- Herbicidal action in [%] 28 DAT against Galium aparine (Galium aparine; 5 g of a.i./ha): 90%
- Herbicidal action in [%] 28 DAT against Galium aparine (Galium aparine; 10 g of a.i./ha): 90%
- Herbicidal action in [%] 28 DAT against Matricaria inodora (Matricaria inodora; 10 g of a.i./ha, post-emergence): 98%

Structure (SMILES): C#CCN1C(=O)COc2cc(F)c(N3C(=O)C4=C(CCCC4)C3=O)cc21 [(B5.26) Flumioxazin]
- pest or weed control at 1.33 g/ha (Amaranthus palmeri; 21 DAT, 1.33 g of a.i./ha): 0%
- pest or weed control at 4 g/ha (Amaranthus palmeri; 21 DAT, 4 g of a.i./ha): 0%
- pest or weed control at 12 g/ha (Amaranthus palmeri; 21 DAT, 12 g of a.i./ha): 10%

Structure (SMILES): CP(=O)(O)CCC(N)C(=O)O (racemic) [(B7.4) Glufosinate-]
- Herbicidal action (Bidens pilosa; 21 DAT, 360 g a.i./ha): 70%
- Herbicidal action (Digitaria sanguinalis; 40 g a.i./ha): 10%
- Herbicidal action (Digitaria sanguinalis; 120 g a.i./ha): 30%

Structure (SMILES): COc1cc(OC)nc(NC(=O)NS(=O)(=O)c2cc(CNS(C)(=O)=O)ccc2C(=O)O)n1 [(B2.37) Mesosulfuron]
- Herbicidal action 28 DAT against Centaurea cyanus (Centaurea cyano; 5 g of a.i./ha): 60%
- Herbicidal action 14 DAT against Matricaria inodora (Matricaria inodora; 15 g of a.i./ha): 75%
- Herbicidal action 28 DAT against Matricaria inodora (Matricaria inodora; 15 g of a.i./ha): 65%
- Herbicidal action 14 DAT against Lolium rigidum (resistant biotype) ([1]; 1.7 g of a.i./ha): 20%
- Herbicidal action 28 DAT against Lolium rigidum (resistant biotype) ([1]; 1.7 g of a.i./ha): 0%
- Herbicidal action 14 DAT against Lolium rigidum (resistant biotype) ([1]; 5 g of a.i./ha): 30%
- Herbicidal action 28 DAT against Lolium rigidum (resistant biotype) ([1]; 5 g of a.i./ha): 0%
- Herbicidal action 14 DAT against Lolium rigidum (resistant biotype) ([1]; 15 g of a.i./ha): 30%
- Herbicidal action 28 DAT against Lolium rigidum (resistant biotype) ([1]; 15 g of a.i./ha): 20%
- Herbicidal action 28 DAT against Phalaris minor (Phalaris minor [2]): 85%
- Herbicidal action 28 DAT against Alopecurus myosuroides (Alopecurus myosuroides [3]): 75%

Structure (SMILES): Cc1nn(C)c(O)c1C(=O)c1ccc(C(F)(F)F)cc1S(C)(=O)=O [(B4.22) Pyrasulfotole]
- Herbicidal action in [%] 14 DAT against Poa annua L. (Poa annua; 5 g of a.i./ha): 0%
- Herbicidal action in [%] 28 DAT against Poa annua L. (Poa annua; 5 g of a.i./ha): 0%
- Herbicidal action in [%] 14 DAT against Poa annua L. (Poa annua; 15 g of a.i./ha): 0%
- Herbicidal action in [%] 28 DAT against Poa annua L. (Poa annua; 15 g of a.i./ha): 0%
- Herbicidal action in [%] 14 DAT against Poa annua L. (Poa annua; 45 g of a.i./ha): 0%
- Herbicidal action in [%] 28 DAT against Poa annua L. (Poa annua; 45 g of a.i./ha): 0%
- Herbicidal action in [%] 28 DAT against Centaurea cyanus (Centaurea cyano; 5 g of a.i./ha): 0%
- Herbicidal action in [%] 14 DAT against Centaurea cyanus (Centaurea cyano; 15 g of a.i./ha): 10%
- Herbicidal action in [%] 28 DAT against Centaurea cyanus (Centaurea cyano; 15 g of a.i./ha): 0%
- Herbicidal action in [%] 14 DAT against Centaurea cyanus (Centaurea cyano; 45 g of a.i./ha): 30%
- Herbicidal action in [%] 28 DAT against Centaurea cyanus (Centaurea cyano; 45 g of a.i./ha): 20%
- Herbicidal action in [%] 14 DAT against Matricaria inodora (Matricaria inodora; 5 g of a.i./ha): 20%
- Herbicidal action in [%] 28 DAT against Matricaria inodora (Matricaria inodora; 5 g of a.i./ha): 10%
- Herbicidal action in [%] 14 DAT against Alopecurus myosuroides (Alopecurus myosuroides [4]; 5 g of a.i./ha): 0%
- Herbicidal action in [%] 28 DAT against Alopecurus myosuroides (Alopecurus myosuroides [4]; 5 g of a.i./ha): 0%
- Herbicidal action in [%] 14 DAT against Alopecurus myosuroides (Alopecurus myosuroides [4]; 15 g of a.i./ha): 0%
- Herbicidal action in [%] 28 DAT against Alopecurus myosuroides (Alopecurus myosuroides [4]; 15 g of a.i./ha): 0%
- Herbicidal action in [%] 14 DAT against Alopecurus myosuroides (Alopecurus myosuroides [4]; 45 g of a.i./ha): 10%
- Herbicidal action in [%] 28 DAT against Alopecurus myosuroides (Alopecurus myosuroides [4]; 45 g of a.i./ha): 10%
- Herbicidal action in [%] 14 DAT against Bromus sterilis (Bromus sterilis; 5 g of a.i./ha): 0%
- Herbicidal action in [%] 14 DAT against Bromus sterilis (Bromus sterilis; 15 g of a.i./ha): 0%
- Herbicidal action in [%] 14 DAT against Bromus sterilis (Bromus sterilis; 45 g of a.i./ha): 10%
- Herbicidal action in [%] 14 DAT against Lolium rigidum (Lolium rigidum; 5 g of a.i./ha): 0%
- Herbicidal action in [%] 28 DAT against Lolium rigidum (Lolium rigidum; 5 g of a.i./ha): 0%
- Herbicidal action in [%] 14 DAT against Lolium rigidum (Lolium rigidum; 15 g of a.i./ha): 5%
- Herbicidal action in [%] 28 DAT against Lolium rigidum (Lolium rigidum; 15 g of a.i./ha): 0%
- Herbicidal action in [%] 14 DAT against Lolium rigidum (Lolium rigidum; 45 g of a.i./ha): 5%
- Herbicidal action in [%] 28 DAT against Lolium rigidum (Lolium rigidum; 45 g of a.i./ha): 10%
- Herbicidal action in [%] 14 DAT against Lolium rigidum (resistant biotype) ([5]; 5 g of a.i./ha): 5%
- Herbicidal action in [%] 28 DAT against Lolium rigidum (resistant biotype) ([5]; 5 g of a.i./ha): 0%
- Herbicidal action in [%] 14 DAT against Lolium rigidum (resistant biotype) ([5]; 15 g of a.i./ha): 5%
- Herbicidal action in [%] 28 DAT against Lolium rigidum (resistant biotype) ([5]; 15 g of a.i./ha): 0%
- Herbicidal action in [%] 14 DAT against Lolium rigidum (resistant biotype) ([5]; 45 g of a.i./ha): 10%
- Herbicidal action in [%] 14 DAT against Phalaris minor (Phalaris minor [6]; 5 g of a.i./ha): 0%
- Herbicidal action in [%] 28 DAT against Phalaris minor (Phalaris minor [6]; 5 g of a.i./ha): 0%
- Herbicidal action in [%] 14 DAT against Phalaris minor (Phalaris minor [6]; 15 g of a.i./ha): 0%
- Herbicidal action in [%] 28 DAT against Phalaris minor (Phalaris minor [6]; 15 g of a.i./ha): 0%

Structure (SMILES): CC(C)N.O=C(O)CNCP(=O)(O)O [(CAS 38641-94-0)]
- Herbicidal action (Galium aparine; 28 DAT, 150 g a.i./ha): 40%
